Data on 35 compounds can be found in PMC6522912, “Evaluation of the published kinase inhibitor set to identify multiple inhibitors of bacterial ATP-dependent mur ligases” (Journal of Enzyme Inhibition and Medicinal Chemistry, 2019).

One test addresses E. coli MurC (Escherichia coli, UniProt P17952). In words: Malachite green inhibition assay, MurC. To be noted: Table S1, PKIS screening; for remaining activity at 100 µM: 0.25 h, read-out: RA [%] at 100 µM MurC. Type of test: biochemical.
The target in the next test is E. coli MurF (Escherichia coli, UniProt P11880). In words: biochemical. To be noted: Table S1, PKIS screening; for remaining activity at 100 µM: 0.25 h, read-out: RA [%] at 100 µM MurF.
The next test deals with E. coli MurD (Escherichia coli, UniProt P14900). In words: biochemical. Particulars: for remaining activity at 100 µM: 0.25 h, Table S1, PKIS screening, read-out: RA [%] at 100 µM MurD. In short, it runs like this:
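Reaction 15 min at 37 °C, then phosphate detected with Biomol green at 650 nm. Values are residual activity versus 5% DMSO carrier controls.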

E. coli MurD, sequence (P14900 whole entry): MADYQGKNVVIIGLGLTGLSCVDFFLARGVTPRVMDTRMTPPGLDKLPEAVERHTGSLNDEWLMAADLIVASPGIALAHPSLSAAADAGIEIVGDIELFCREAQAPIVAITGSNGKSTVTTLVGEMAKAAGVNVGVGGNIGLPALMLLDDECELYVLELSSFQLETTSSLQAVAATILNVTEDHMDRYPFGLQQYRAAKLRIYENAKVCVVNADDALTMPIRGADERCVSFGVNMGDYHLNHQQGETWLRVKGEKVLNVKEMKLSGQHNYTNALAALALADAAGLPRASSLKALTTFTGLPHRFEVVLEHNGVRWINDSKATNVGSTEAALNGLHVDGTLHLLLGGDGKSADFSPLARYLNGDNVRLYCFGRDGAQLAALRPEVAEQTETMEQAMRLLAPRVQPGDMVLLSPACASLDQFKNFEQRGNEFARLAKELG
E. coli MurF, sequence (P11880 whole entry): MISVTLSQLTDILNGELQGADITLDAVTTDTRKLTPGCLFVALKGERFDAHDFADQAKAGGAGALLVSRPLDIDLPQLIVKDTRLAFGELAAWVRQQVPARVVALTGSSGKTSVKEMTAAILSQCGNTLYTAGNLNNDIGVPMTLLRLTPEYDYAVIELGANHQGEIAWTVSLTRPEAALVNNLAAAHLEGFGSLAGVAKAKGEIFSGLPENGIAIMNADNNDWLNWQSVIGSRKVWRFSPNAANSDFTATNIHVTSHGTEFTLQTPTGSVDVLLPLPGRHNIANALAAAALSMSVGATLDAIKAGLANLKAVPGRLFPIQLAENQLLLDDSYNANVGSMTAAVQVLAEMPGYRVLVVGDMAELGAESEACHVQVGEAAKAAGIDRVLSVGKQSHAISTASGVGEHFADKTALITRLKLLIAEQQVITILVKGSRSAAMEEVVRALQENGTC
E. coli MurC, sequence (P17952 whole entry): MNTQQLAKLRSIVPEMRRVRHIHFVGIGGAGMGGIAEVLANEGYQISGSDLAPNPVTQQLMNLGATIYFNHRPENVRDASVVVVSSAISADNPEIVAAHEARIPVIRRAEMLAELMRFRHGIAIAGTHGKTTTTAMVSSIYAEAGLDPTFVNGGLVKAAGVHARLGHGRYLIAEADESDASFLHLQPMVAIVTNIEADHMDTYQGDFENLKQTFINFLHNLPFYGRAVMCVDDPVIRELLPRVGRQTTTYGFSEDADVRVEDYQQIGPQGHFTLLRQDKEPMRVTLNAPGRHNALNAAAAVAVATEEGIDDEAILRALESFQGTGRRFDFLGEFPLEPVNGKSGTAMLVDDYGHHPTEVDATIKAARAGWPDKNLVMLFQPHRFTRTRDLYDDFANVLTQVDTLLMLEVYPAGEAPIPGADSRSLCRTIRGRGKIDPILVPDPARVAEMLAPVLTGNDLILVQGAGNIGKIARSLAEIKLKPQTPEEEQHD

On to `NC(=O)Cc1ccccc1Oc1nccc(-c2c(-c3ccc(F)cc3)ncn2C2CCNCC2)n1` [SB-264865], for which the results for the remaining activity at 100 µM at E. coli MurC, on E. coli MurF and at E. coli MurD were 66%, 98% and 82%, respectively.
The matching figures for `O=C1NC(=O)C(N2CCc3ccccc32)=C1c1ccc(Cl)cc1` [SB-333612]: 100%, 100% and 96%.
For `N#Cc1c(NC(=O)c2ccc(F)cc2)sc2c1CCCC2` [SB-347804], in that order: 87%, 100% and 78%.
For `O=C1NC(=O)C(c2ccc(Cl)cc2)=C1Nc1ccc(Cl)c(C(=O)O)c1` [SB-360741], in that order: 84%, 83% and 86%.
Turning to `COc1ccc(C2=C(N3CCc4ccccc43)C(=O)NC2=O)cc1` [SB-361058], the remaining activity at 100 µM at E. coli MurC turned out to be 100%; on E. coli MurF, 97%; on E. coli MurD, 100%.
On to `O=C1NC(=O)C(c2ccccc2Cl)=C1Nc1cccc(O)c1` [SB-390527], for which the remaining activity at 100 µM on E. coli MurC amounted to 50%; on E. coli MurF, 88%; on E. coli MurD it was 83%.
The matching figures for `O=C1NC(=O)C(c2cccc(Cl)c2)=C1Nc1ccc(Cl)c(C(=O)O)c1` [SB-409513]: 94%, 78% and 88%.
For the compound `NC(=O)c1ccc(-c2nc(-c3ccc4c(c3)OCO4)c(-c3ccccn3)[nH]2)cc1` [SB-431542-A], the “RA [%] at 100 µM MurC” value at E. coli MurC was 59%. The “RA [%] at 100 µM MurF” value at E. coli MurF is given as 100%. Moreover, the “RA [%] at 100 µM MurD” value at E. coli MurD was determined as 90.
As for `COc1ccc2cc(-c3c(-c4ccncc4)nc(-c4ccc([S+](C)[O-])cc4)n3C)ccc2c1` (stereo not drawn) [SB-437013], the remaining activity at 100 µM was 70% on E. coli MurC, 70% on E. coli MurF and 58% on E. coli MurD.
For `CN(C)CCOc1ccc(-c2nc(-c3ccncc3)c(-c3ccc4c(c3)CC/C4=N\O)[nH]2)cc1` [SB-590885-AAD], on E. coli MurC, the “RA [%] at 100 µM MurC” value came out at 74%. Further, the “RA [%] at 100 µM MurF” value on E. coli MurF is 100%. Besides, the “RA [%] at 100 µM MurD” value on E. coli MurD is recorded as 100.
The matching figures for `Cl.Oc1cccc(-c2nc(-c3ccccc3)[nH]c2-c2ccncc2)c1` [SB-610251-B]: 74%, 96% and 13.
Turning to `COc1ccc2cc(-c3c(-c4ccncc4)nc(-c4ccc(S(C)(=O)=O)cc4C)n3C)ccc2c1` [SB-633825], the remaining activity at 100 µM on E. coli MurC was found to be 36%; at E. coli MurF it was 56%; at E. coli MurD it was 69%.
On to `CN1CCC(C(=O)Nc2n[nH]c3nnc(-c4ccccc4)cc23)CC1.Cl` [SB-678557-A], for which the “RA [%] at 100 µM MurC” value on E. coli MurC worked out at 74%. Moreover, the “RA [%] at 100 µM MurF” value at E. coli MurF is on record as 95%. At E. coli MurD, the “RA [%] at 100 µM MurD” value is listed as 76.
As to `CN(C)CCOc1ccc(-c2cc(-c3ccc4c(c3)CCC4=NO)c(-c3ccncc3)o2)cc1.Cl` [SB-682330-A], the “RA [%] at 100 µM MurC” value at E. coli MurC came to 31%. Also, the “RA [%] at 100 µM MurF” value on E. coli MurF amounted to 57%. At E. coli MurD, the “RA [%] at 100 µM MurD” value stood at 51.
As for `O=C(Nc1n[nH]c2nc(-c3ccc(O)cc3)c(Br)cc12)C1CC1` [SB-725317], the remaining activity at 100 µM at E. coli MurC came out at 84%; at E. coli MurF it was 89%; at E. coli MurD it was 96%.
The matching figures for `CN1CCC(C(=O)Nc2n[nH]c3nc(-c4ccc(O)cc4)c(Br)cc23)CC1` [SB-732881]: 71%, 90% and 84%.
The matching figures for `O=C(Nc1n[nH]c2cc(-c3ccccc3)ccc12)C1CC1` [SB-732941]: 80%, 86% and 79%.
The matching figures for `Nc1nonc1-c1nc2cnccc2n1C1CCCCC1` [SB-734117]: 100%, 93% and 79%.
As to `O=C(Nc1n[nH]c2cc(-c3cc(F)ccc3F)ccc12)C1CC1` [SB-735465], the remaining activity at 100 µM at E. coli MurC worked out at 59%; at E. coli MurF, 82%; at E. coli MurD, 80%.
The matching figures for `O=C(Nc1n[nH]c2cc(-c3ccc(F)cc3)ccc12)C1CC1` [SB-735467]: 51%, 103% and 75%.
The matching figures for `Nc1nonc1-c1nc2cnccc2n1C1CC1` [SB-736302]: 92%, 77% and 100%.
For `CCOc1nccc2c1nc(-c1nonc1N)n2CC` [SB-737198], in that order: 73%, 100% and 100%.
Take `NS(=O)(=O)c1ccc(-c2ccc3c(NC(=O)C4CC4)n[nH]c3c2)cc1` [SB-738482]: the remaining activity at 100 µM at E. coli MurC came to 75%; on E. coli MurF, 83%; at E. coli MurD it was 83%.
`CCn1c(-c2nonc2N)nc2ccncc21` [SB-738561]: the results for the remaining activity at 100 µM at E. coli MurC, at E. coli MurF and at E. coli MurD were 78%, 100% and 58%, respectively.
For `O=C(Nc1n[nH]c2nc(-c3ccco3)c(Br)cc12)C1CC1` [SB-739452], in that order: 78%, 87% and 84%.
The matching figures for `NS(=O)(=O)c1cccc(-c2ccc3c(NC(=O)C4CC4)n[nH]c3c2)c1` [SB-741905]: 72%, 88% and 98%.
The matching figures for `CS(=O)(=O)Nc1cccc(-c2ccc3c(NC(=O)C4CC4)n[nH]c3c2)c1` [SB-742864]: 64%, 99% and 88%.
As for `CS(=O)(=O)Nc1ccc(-c2ccc3c(NC(=O)C4CC4)n[nH]c3c2)cc1` [SB-742865], the remaining activity at 100 µM at E. coli MurC was 63%; on E. coli MurF it was 92%; on E. coli MurD, 80%.
The matching figures for `O=C(Nc1n[nH]c2nc(-c3ccco3)ccc12)C1CC1` [SB-743899]: 84%, 91% and 89%.
As to `CCc1nccc2c1nc(-c1nonc1N)n2CC` [SB-751148], the values for the remaining activity at 100 µM at E. coli MurC, on E. coli MurF and on E. coli MurD were 75%, 88% and 96%, respectively.
Regarding `CCn1c(-c2nonc2N)nc2cncc(C(=O)N3CC[C@H](N)C3)c21` [SB-772077-B], the “RA [%] at 100 µM MurC” value at E. coli MurC is recorded as 77%. Moreover, the “RA [%] at 100 µM MurF” value at E. coli MurF is 80%. In addition, at E. coli MurD, the “RA [%] at 100 µM MurD” value is 90.
The matching figures for `Fc1ccc(-c2nc3n(c2-c2ccncc2)CCS3)cc1` [SKF-86002-A2]: 75%, 97% and 91.
With `Fc1ccc(-c2c(-c3ccncc3)nc3n2CCS3)cc1` [SKF-86055], the remaining activity at 100 µM at E. coli MurC was 98%; at E. coli MurF, 89%; on E. coli MurD, 91%.
As for SB-675259-M, the “RA [%] at 100 µM MurC” value at E. coli MurC is listed as 72%. The “RA [%] at 100 µM MurF” value at E. coli MurF is given as 100%. Besides, on E. coli MurD, the “RA [%] at 100 µM MurD” value is reported as 80.
The matching figures for SB-739245-AC: 61%, 95% and 99%.
